{
  "source": "paper PMC10296415",
  "about": "“Methyl-Thiol-Bridged Oxadiazole and Triazole Heterocycles as Inhibitors of NF-κB in Chronic Myelogenous Leukemia Cells” (Biomedicines, 2023)",
  "key": {"[1]": {"test_system": "p-IKKα/β, p-IκBα, phospho-p65", "assay": "Western blot of NF-κB complex subunits in CML cells", "type": "cell-based, human", "settings": "4c 30 µM pre-treatment, TNFα 0.5 nM", "procedure": "(§1) CML cells were treated with compound 4c, harvested, and the cell lysates were obtained. The required proteins of our interest were separated on SDS-PAGE and transferred into the nitrocellulose membrane. The membrane was incubated with primary antibody and HRP-conjugated secondary antibody in a sequential manner. The ECL kit (EZ-Western Lumi Femto, DOZEN) was used to detect the respective proteins."}, "[2]": {"test_system": "CML cells (KMB5, KCL22, LAMA84, and K562 cell lines)", "assay": "MTT cell viability assay, CML cells", "type": "cell-based, human", "settings": "0, 5, 10, 15, 30, 50 µM, 24 h", "procedure": "(§2) MCF-7 cells were purchased from Procell Life Science and Technology Co., Ltd., Wuhan, China, and cultured in MEM or Leibovitz’s L-15 medium containing 2% FBS. MCF-7 cells were maintained in a 5% CO2-humidified atmosphere at 37 °C. KCL22, LAMA84, and K562 cells were obtained from the American Type Culture Collection (Manassas, VA, USA). The KBM5 cell line was previously provided by Dr. Bharat Aggarwal (University of Texas M.D. Anderson Cancer Center, Houston, TX, USA). KBM5 cells were cultured in IMDM medium with 10% inactivated FBS and 1% penicillin-streptomycin. KCL22, LAMA84, and K562 cells were cultured in RPMI with 10% FBS and 1% penicillin-streptomycin antibiotics and maintained at 37 °C in a 5% CO2 chamber.\n(§3) Cells (1 × 10^4 cells/well) were seeded on a 96-well plate and treated with 4c (0, 5, 10, 15, 30, 50 µM) for 24 h. After 24 h of treatment, 30 µL of MTT solution (2 mg/mL) for 2 h, followed by MTT lysis overnight. Cell viability was analyzed by measuring the absorbance of lysed MTT crystals using VARIOSKAN LUX (Thermo Fisher Scientific Inc., Waltham, MA, USA) at 570 nm."}, "[3]": {"test_system": "survivin, MMP-9, Bcl-2/xl, VEGF, COX-2, PARP", "assay": "Western blot of NF-κB regulated proteins and PARP in CML cells", "type": "cell-based, human", "settings": "4c 30 µM pretreatment, TNFα 0.5 nM for 0, 6, 12, 24 h", "procedure": "as §1"}, "MCF-10A cells": {"test_system": "MCF-10A cells", "assay": "Cytotoxicity assay, MCF-10A", "type": "cell-based", "settings": "Homo sapiens, MCF-10A; normal mammary epithelial cells", "procedure": "as §3"}, "NF-κB-p65": {"test_system": "NF-κB-p65", "assay": "Immunocytochemistry of p65 nuclear translocation in CML cells", "type": "cell-based, human", "settings": "4c 30 µM 2 h, then TNFα 0.5 nM 10 min", "procedure": "CML cells (1 × 10^6 cells/well) were treated with 4c (0 or 30 µM) for 2 h, followed by TNFα (0.5 nM) addition for 10 min. Further, the CML cells were fixed, permeabilized, and blocked with 5% BSA-PBS. The cells were visualized by using primary anti-p65 antibodies and secondary antibodies called Alexa Fluor® 594 donkey anti-rabbit IgG (H + L). Nuclei were stained with DAPI, and the immobilized cells were mounted with Fluorescent Mounting Medium (Golden Bridge International Labs, Mukilteo, WA, USA) and finally quantified using an Olympus FluoView FV1000 confocal microscope (Tokyo, Japan)."}, "[4]": {"assay": "MTT cell viability assay, PBMC", "type": "cell-based", "settings": "normal PBMC cells, 30 and 50 µM", "procedure": "as §3"}, "NF-κB": {"test_system": "NF-κB", "assay": "EMSA of TNFα-induced NF-κB DNA binding in CML cells", "type": "cell-based, human", "settings": "4c 0, 5, 15, 30 µM 2 h, then TNFα 0.5 nM 10 min; nuclear extracts", "procedure": "CML cells (1 × 10^6 cells/well) were treated with indicated concentrations of 4c (0, 5, 15, 30 µM) for 2 h, then TNFα (0.5 nM) for 10 min. Nuclei extracts were prepared from whole cell pellets and incubated with NF-κB oligonucleotides (5′-[…]-3′ and 5′-[…]-3′), and Oct-1 (5′-[…]-3′ and 5′-[…] -[…]-3′) was used for loading control. The protein–DNA complex was run on a 5% gel, and the respective proteins were detected using the EMSA kit (Waltham, MA, USA)."}, "[5]": {"test_system": "COX-2 binding to p65 promoter", "assay": "ChIP assay in CML cells", "type": "cell-based, human", "settings": "4c 0, 5, 15, 30 µM", "procedure": "CML cells (1 × 10^6 cells/well) were incubated with compound 4c (5, 15, 30 µM) for 24 h and immunoprecipitated with anti-NF-κB p65 antibody. RT-PCR was performed with COX-2 at 94 °C for 5 min, 94 °C for 30 s, 58 °C for 30 s, 72 °C for 30 s with 30 cycles, and extension at 72 for 7 min. All the experiments were performed 3 times as individual repeats."}, "MCF-7 cell line": {"test_system": "MCF-7 cell line", "assay": "MTT cell viability assay, MCF-7", "type": "cell-based", "procedure": "as §2, §3"}},
  "data": [
    {"compound": "COc1ccc(Cc2nnc(SCc3cn(-c4ccc(Cl)c(Cl)c4)nn3)o2)cc1", "note": "[Compound 4c, 2-(((1-(3,4-Dichlorophenyl)-1H-1,2,3-triazol-4-yl)methyl)thio)-5-(4-methoxybenzyl)-1,3,4-oxadiazole]", "values": [
      {"measurement": "p-IKKα/β and p-IκBα induced by TNFα", "setting": "[1]; cytoplasmic extracts", "value": "inhibited"},
      {"measurement": "phospho-p65 in nuclei", "setting": "[1]; nuclear extracts", "value": "suppressed phospho-p65 in nuclei"},
      {"measurement": "cell viability in CML cells", "setting": "[2]", "value": "concentration-dependent loss of cell viability"},
      {"measurement": "cleavage of PARP", "setting": "[3]", "value": "enhanced the cleavage of PARP"},
      {"measurement": "expression of anti-apoptotic proteins (survivin, MMP-9, Bcl-2/xl, VEGF, COX-2)", "setting": "[3]", "value": "suppressed the expression of these proteins"},
      {"measurement": "IC50", "setting": "MCF-10A cells", "value": "> 100", "unit": "µM"},
      {"measurement": "translocation of NF-κB-p65 to nuclei", "setting": "NF-κB-p65", "value": "suppressed the translocation of NF-κB-p65 to nuclei"},
      {"measurement": "viability at 24 h", "setting": "[4]", "value": "> 80", "unit": "%"},
      {"measurement": "binding of NF-κB to DNA induced by TNFα", "setting": "NF-κB", "value": "substantially inhibited"},
      {"measurement": "p65 binding to the COX-2 promoter", "setting": "[5]", "value": "markedly inhibited COX-2 binding to the p65 promoter"},
      {"measurement": "IC50", "setting": "MCF-7 cell line; Homo sapiens, MCF7, viability of MCF-7 cell line", "value": "9 to 16", "unit": "µM"},
      {"measurement": "IC50", "setting": "MCF-7 cell line; viability of MCF-7 cell line", "value": "7.4 ± 0.87", "unit": "µM"}
    ]}
  ]
}
